The source made the active and inactive calls. How the calls were made is not given here.
Test system: PAMPA artificial membrane permeability, UV readout, 30 min
Assay: PAMPA effective permeability – biophysical, pH 7.4, 6.2, 5.0, ADME assay, late-stage follow-up (AID 1557)
Details: at 50 µM, stronger effect = higher value

effective permeability pH 7.4: 58 10-6 cm/s (inactive) | effective permeability pH 5.0 (measured here: permeability at pH 5.0): 90 10-6 cm/s | effective permeability pH 6.2 (measured here: permeability at pH 6.2): 98 10-6 cm/s
SMILES: C=CCn1c(SCC(=O)c2ccc(O)c(O)c2)nnc1-c1ccccc1OC
